Results as given in US9102667B2, “N-arylaminomethylene benzothiophenones for treatment of cardiovascular disease” (FORSCHUNGSVERBUND BERLIN E.V., priority 2011, dated 2015).
One block for each compound: values may come before it.

How the values were obtained:
PKA subunit RIIα = PKA subunit RIIα (Homo sapiens, UniProt P13861); test: Microscale Thermophoresis (MST); type: binding; details: 20 mM Phosphate, pH 7.5, 100 mM NaCl, 0.05% Tween 20, 5% DMSO, 25° C.
Procedure: Microscale Thermophoresis (MST) were performed on a monolith NT machine (nano tember technologies, Munich, Germany) with exemplary compounds (T2/11, 15, 59) in 20 mM Phosphate, pH 7.5, 100 mM NaCl, 0.05% Tween 20 and 5% DMSO according to the general protocol provided by the manufacturer. Interaction partners were PKA subunit RIIα labelled with blue fluorescent dye NT-495; the parameters were: LED blue, LED Power 80%, Laser Power 20-80%, 25° C. A constant concentration of compounds was titrated with increasing concentrations of unlabelled PKA RIIα (50 nM, 100 nM, 250 nM, 500 nM, 1 μM, 2.5 μM, 5 μM, 10 μM, 25 μM, 50 μM, 100 μM and 200 μM).

AKAP-PKA interaction = AKAP-PKA interaction (Homo sapiens, UniProt P13861); test: AKAP-PKA interaction (disruption) assays of Examples 1-3: alpha screen, surface plasmon resonance, ELISA (combined classification); type: binding; details: for IC50: read-out: Activity (IC50 class)
Sequence of AKAP-PKA interaction (P13861 2-404 limits assumed): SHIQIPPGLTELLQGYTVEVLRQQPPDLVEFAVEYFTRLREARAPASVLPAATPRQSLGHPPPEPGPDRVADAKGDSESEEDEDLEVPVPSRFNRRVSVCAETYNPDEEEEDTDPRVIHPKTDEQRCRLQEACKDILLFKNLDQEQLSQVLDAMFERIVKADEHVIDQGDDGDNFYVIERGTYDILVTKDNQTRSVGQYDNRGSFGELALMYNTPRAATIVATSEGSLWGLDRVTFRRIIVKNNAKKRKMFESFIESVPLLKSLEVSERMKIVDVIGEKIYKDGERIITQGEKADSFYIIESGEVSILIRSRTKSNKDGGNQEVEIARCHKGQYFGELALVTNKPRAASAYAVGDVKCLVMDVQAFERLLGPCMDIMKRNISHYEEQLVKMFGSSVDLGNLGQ
Procedure: The inhibition of the interaction of the alpha RII subunit of protein kinase A with AKAP18-alpha by the compounds according to the invention is determined as follows:
The experiment measures the suitability of candidate compounds for the inhibition of the interaction between AKAP and PKA. An AKAP-GST fusion construct is immobilized on glutathione donor beads and His-RII-alpha on Ni-chelate acceptor beads. To the extent that the partners interact, singlet oxygen from the donor beads becomes free and activates the fluorescence emission of the acceptor beads. The fluorescence emission determined in the microplate reader is proportional to the intensity of interaction of the protein partners. The IC50 is determined from the results of the measurement of several concentrations of one candidate compound.
The details of the process were as follows: Two protein Solutions A and B are produced in a buffer (phosphate NaCl buffer, 0.1% polysorbate 80, 0.1% [=1 mg/ml BSA]). These contain (A) the histidine-6-tagged fusion construct RII-alpha-His (3.125 nmol/l) and (B) the glutathione-S-transferase-tagged fusion construct GST-AKAP18-alpha-d2-10 (6.25 nmol/l). One volume unit each of protein solution and bead suspension are incorporated, specifically Solution A of the His6-tagged protein with Ni-chelate bead suspension and Solution B of the GST-fusion protein with glutathione beads (Perkin Elmer Product No. 6765302), and in doing so the concentrations are selected according to the manufacturers information. The Mixtures A and B obtained are incubated for one hour at room temperature (RT) in the dark.
Then, 5 μl of Mixture A is laid out for each hole on a 384-hole microtiter plate, and then to start with 0.5 μl of a solution of the candidate compound in DMSO is added and then 5 μl of Mixture B. The resulting reaction mixture is incubated 1 h at RT in the dark. Then, the reaction is tempered to 28.5° C., and the emitter intensity of the acceptor is determined in a microtiter plate reader after excitation of the donor at 680 nm.
The relative inhibition of the AKAP-PKA interaction is calculated following the formula: 1−(xc−y)/(z−y) where: X=average of readings (n=3) at concentration c; Y=average of measurement data from bead-bead check (n=6); Z=average of measurement data from protein-protein check (n=6). Results:
Surface plasmon resonance analyses for competition in solution were performed with streptavidin-coated sensor chips (GE Healthcare, Uppsala, Sweden). The N-terminal biotinylated peptide AKAP18d-L314E was used, which is a variant of the RH-binding domains of AKAP18δ (Hundsrucker et al., Biochem. J. 396, 297-306, [2006]). The binding of the regulatory subunit of the human PKAII-α or RII-β onto the peptide surface of the AKAP18δ-L314E, or the inhibition of this binding to RII by the compounds of the invention, was measured on a Biacaore 3000 machine (Biacore/GE Healthcare) as previously described (Henn et al., J Biol Chem 279, 26654-26665 [2004]). The compounds were injected for 60 sec at a flow rate of 30 μl/min, and the dissociation phase was measured for 180 sec.
Multititer plates (Corning B.V. Life Sciences, Schiphol-Rijk, Netherlands) were coated with recombinantly produced PKA RIIα (15 ng/hole) by incubation with phosphate buffer containing protease inhibitors (1 h, 22° C.). The plate was then blocked with lactoprotein.
GST-AKA7δ (Hundsrucker et al., Biochem. J. 396, 297-306, [2006]; 15 ng/well) was incubated with and without candidate compounds on the plate for 1 h at 22° C. After washing, it was incubated with antibodies (rabbit) against AKA7δ (A18δ3) and then with a peroxidase-conjugated antirabbit antibody and developed with dye substrate (LumiLight Western Blotting Substrate, Roche Diagnostics, Mannheim, Germany). Luminescence activity was determined in a microplate reader (GeniosPro, Tecan, Durham, N.C., United States) at 10 msec integration.

[1] = system: TAC operated C57BL/6 mice; test: Echocardiography in the TAC model, Example 5a; type: in vivo
Procedure: Protocol: For intervention 12- to 14-week-old male C57BL/6 mice (Charles River Sulzfeld) were anesthetized by 2.4% isoflurane inhalation. Transverse aortic banding (TAC) was performed by tying a 7-0 prolene suture (Ethicon) ligature around the aorta and a blunted 26-gauge needle and subsequent removal of the needle. For sham controls the suture was not tied. TAC was confirmed by echocardiography and measurement of blood flow gradient 4 weeks after surgery. Next, mini-osmotic pumps (model 1004, Alzet) with T2/15 compound/vehicle were implanted i.p. Echocardiography was performed 2 and 4 weeks with compound treatment.
For echocardiography analyses mice were anesthetized by 2.4% isoflurane inhalation and ventricular measurements were done with a VisualSonics Vevo 2100 Imaging System equipped with a 45 MHz MS-550D MicroScan transducer. The observer was unaware of the genotypes and treatments.
Differences between experimental groups were analyzed using ANOVA test followed by Bonferroni's Multiple Comparison Test using Prism Graphpad 4. Data are presented as mean±SEM. P<0.05 values were considered significant.

[2] = system: C57B1/6 mice undergoing TAC operations; test: Transverse aortic constriction (TAC) animal model, Example 5; type: in vivo
Procedure: In male C57B1/6 mice (12-14 weeks old, average weight 26 g), high pressure overload induced by restricting the aorta following the method published by de Alameida et al. (J vis exp. 2010 Apr. 21; [38]). Control animals were treated with sham operations. The animals were observed over a period of 4 weeks after the operation, and then mini osmotic pumps were implanted intraperitoneally with a compound to be tested (0.5, 5, 50, and 100 μmol/l, corresponding to 6 μg/kg/day) (Table 2), a β1-adrenergic receptor antagonist (metoprolol; 24 mg/kg/day), a β1-adrenergic receptor […], a PDE3-inhibitor (milrinone; 3.0 mg/kg/d), and DMSO. Echocardiograms were done two and four weeks after implantation.
As expected, the narrowing of the aorta leads to cardiac hypertrophy and chronic heart failure in the 4-week period after surgery. The ejection fraction (ejection fraction; Ef) is the portion of the blood contained in the chambers of the heart that is ejected in comparison with the total volume at the end of diastole of the ventricle. […] The following groups were measured:
Animals undergoing sham operations with • only DMSO as vehicle control (solid black bar); • Compound 59, 3 μg/kg/day in DMSO (checked bar); • Compound 59, 6 μg/kg/day in DMSO (bold crosshatched bar);
Animals undergoing TAC operations with • only DMSO as vehicle control (bold vertically hatched bar); • Compound 59, 0.03 μg/kg/day in DMSO (bold diagonal hatching to upper right); • Compound 59, 0.03 μg/kg/day in DMSO (bold diagonal hatching to lower right); • Compound 59, 3 μg/kg/day in DMSO (thin diagonal hatching to upper right); • Compound 59, 6 μg/kg/day in DMSO (thin diagonal hatching to lower right);

[3] = class from IC50 values in assays of Examples 1, 2 or 3
[4] = between 0.3 and 3 μg/kg/d, vs. DMSO

Sequence of PKA subunit RIIα (P13861 whole entry): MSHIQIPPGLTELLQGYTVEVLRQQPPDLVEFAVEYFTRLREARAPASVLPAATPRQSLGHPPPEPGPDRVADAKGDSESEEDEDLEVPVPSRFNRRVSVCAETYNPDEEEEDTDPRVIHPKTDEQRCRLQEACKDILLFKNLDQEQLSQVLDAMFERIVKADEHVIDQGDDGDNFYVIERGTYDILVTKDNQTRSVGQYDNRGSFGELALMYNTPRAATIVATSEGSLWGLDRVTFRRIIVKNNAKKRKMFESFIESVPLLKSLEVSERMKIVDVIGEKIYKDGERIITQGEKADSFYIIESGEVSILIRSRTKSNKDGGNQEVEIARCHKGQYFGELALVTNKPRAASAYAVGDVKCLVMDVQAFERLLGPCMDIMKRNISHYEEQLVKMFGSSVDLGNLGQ

- Kd (PKA subunit RIIα): 31.9 µM
- IC50 relative to that of the unsubstituted mother compound (AKAP-PKA interaction; alkyl substituent on heteroaromatic pentacycle): about 50%
- IC50 (AKAP-PKA interaction; [3]): < 150 µM
SMILES: Cc1cnc(N/C=C2\Sc3ccccc3C2=O)s1 [T2/11, (2Z)-2-[[(5-methylthiazole-2-yl)amino]methylene]benzothiophene-3-one]

- Kd (PKA subunit RIIα): 98.1 µM
- IC50 (AKAP-PKA interaction; [3]): < 25 µM
SMILES: N#Cc1cnc(N/C=C2\Sc3ccccc3C2=O)s1 [T2/15, 2-[[(z)-(3-oxobenzothiophene-2-ylidene)methyl]amino]thiazole-5-carbonitrile]
- cardiac function [1, 4]: improved function
- heart rate or -mass [1, 4]: without increasing
- wall dimensions and cavity diameter (IVSd, LVPWd, LVEDd) ([1]; echocardiography, i.p. mini-osmotic pump, 2 and 4 weeks treatment): no significant effect
- HW/TL (heart weight normalized against tibia length) ([1]; treatment vs. DMSO, FIG. 6): has an effect on HW/TL

- IC50 (AKAP-PKA interaction; [3]): < 150 µM
SMILES: O=C1/C(=C/Nc2ncns2)Sc2ccccc21 [T2/30, (2Z)-2-[(1,2,4-thiadiazol-5-ylamino)methylene]benzothiophene-3-one]

- IC50 (AKAP-PKA interaction; [3]): < 250 µM
SMILES: O=C1/C(=C/Nc2nc3ccccc3s2)Cc2ccccc21 [T2/55, (2e)-2-[(1,3-benzothiazole-2-ylamino)methylene]indane-1-one]

- IC50 (AKAP-PKA interaction; [3]): < 25 µM
SMILES: O=C(O)c1cnc(N/N=C2\Sc3ccccc3C2=O)s1 [T2/53, 2-[(2Z)-2-(3-oxobenzothiophene-2-ylidene)hydrazino]thiazole-5-carboxylic acid]

SMILES: O=C1/C(=C/Nc2nc3ccccc3s2)Sc2ccccc21 [T2/23, (2Z)-2-[(1,3-benzothiazol-2-ylamino)methylene]-benzothiophen-3-one]
- Activity (IC50 class) (AKAP-PKA interaction; [3]): (2Z)-2-[(1,3-benzothiazol-2-ylamino)methylene]- benzothiophen-3-one Activity A/B

- Kd (PKA subunit RIIα): 88.5 µM
- IC50 (AKAP-PKA interaction; [3]): < 250 µM
SMILES: O=C(O)c1ccc(N/C=C2\Sc3ccccc3C2=O)cc1 [T2/59, 4-[[(z)-(3-oxobenzothiophene-2-ylidene)methyl]amino]benzoic acid]
- heart rate ([2]; TAC model mice): does not affect the heart rate
- ejection fraction (Ef) ([2]; TAC operated mice, i.p. mini osmotic pump, depending on the dose, operated without treatment 20%, healthy >60%): 40%
- heart weight (ratio of heart weight to the tibia length) ([2]; TAC operated treated mice, FIG. 2): falls significantly

- IC50 (AKAP-PKA interaction; [3]): < 25 µM
SMILES: Cc1csc(N/N=C2\Sc3ccccc3C2=O)n1 [T2/51, (2Z)-2-[(4-methylthiazole-2-yl)hydrazono]benzothiophene-3-one]

- IC50 (AKAP-PKA interaction; [3]): 250 to 750 µM
SMILES: O=C1/C(=C/Nc2nc3c(F)cc(F)cc3s2)Sc2ccccc21 [T2/26, (2Z)-2-[[(4,6-difluoro-1,3-benzothiazole-2-yl)amino]methylene]benzothiophene-3-one]

- IC50 (AKAP-PKA interaction; [3]): < 50 µM
SMILES: Cc1coc(N/C=C2\Sc3ccccc3C2=O)n1 [T2/4, (2Z)-2-[[(4-methyloxazole-2-yl)amino]methylene]benzothiophene-3-one]

- IC50 (AKAP-PKA interaction; [3]): < 150 µM
SMILES: COc1ccc2nc(N/C=C3\Sc4ccccc4C3=O)sc2c1 [T2/24, (2Z)-2-[[(6-methoxy-1,3-benzothiazole-2-yl)amino]methylene]benzothiophene-3-one]
